Assay results as given in paper PMC8845285, “Serotoninergic receptor ligands improve Tamoxifen effectiveness on breast cancer cells” (BMC Cancer, 2022).

Tested on: CTGF
Assay: CTGF mRNA levels in MCF7-R cells, qPCR
Assay type: cell-based, human
Settings: SER 20 μM
Description: Total RNA was isolated from cells, quantified (NanoDrop spectrophotometer, Life Technologies, Carlsbad, CA, USA) and reverse transcribed according to the manufacturer’s instructions. Semiquantitative PCR and qPCR assays were performed according to manufacturer’s instructions for Bio-Rad T100 thermal cycler and CFX Connect Real Time system (Biorad, Hercules, CA, USA), respectively. Relative gene expression quantification was measured by 2^−ΔΔCt method normalizing for the reference sample using Rps23 (Ribosomal Protein S23) as housekeeping gene.
Fig. 9 Effect of SER79 and SER68 on Tamoxifen-resistant (MCF7-R) cells. a Estrogen starved MCF7-R were treated with SER79 (20 μM, 5 μM) or SER68 (20 μM) in presence of E2 (100 nM). b Estrogen-starved MCF7-R were treated with Tamoxifen (5 μM) in presence of E2 and SER79 (20 μM) or SER68 (20 μM). a,b As positive control, the cells were treated with E2 alone, in absence or in presence of SER (dotted line). After 72 h, cell viability was assessed by sulforhodamine B assay (see Methods). The results were reported as percentage of viable cells compared to positive control, considered as maximum viability (100%). c mRNA levels of CTGF were determined by qPCR (see Methods and Table 1) in MCF7-R cells upon treatment with SER68 (20 μM). […]

`O=C1C2C3C=CC(C3)C2C(=O)N1OCCN1CCN(c2ccc(Cl)c(Cl)c2)CC1` (stereo not shown) [SER68] was tested, and the “effect on CTGF mRNA content of MCF7-R cells” value was “did not further reduce”.
